Measurements from ChEMBL document CHEMBL1137758, “Biphenyl C-cyclopropylalkylamides: New scaffolds for targeting estrogen receptor beta” (Bioorg Med Chem Lett, 2009).

Tests used:
[1] = target: T1, Estrogen receptor (Homo sapiens) (UniProt P03372); experiment: Displacement of fluorescein-labeled estradiol from human recombinant ERalpha at 0.2 uM by fluorescence polarization assay
T1 sequence (whole entry): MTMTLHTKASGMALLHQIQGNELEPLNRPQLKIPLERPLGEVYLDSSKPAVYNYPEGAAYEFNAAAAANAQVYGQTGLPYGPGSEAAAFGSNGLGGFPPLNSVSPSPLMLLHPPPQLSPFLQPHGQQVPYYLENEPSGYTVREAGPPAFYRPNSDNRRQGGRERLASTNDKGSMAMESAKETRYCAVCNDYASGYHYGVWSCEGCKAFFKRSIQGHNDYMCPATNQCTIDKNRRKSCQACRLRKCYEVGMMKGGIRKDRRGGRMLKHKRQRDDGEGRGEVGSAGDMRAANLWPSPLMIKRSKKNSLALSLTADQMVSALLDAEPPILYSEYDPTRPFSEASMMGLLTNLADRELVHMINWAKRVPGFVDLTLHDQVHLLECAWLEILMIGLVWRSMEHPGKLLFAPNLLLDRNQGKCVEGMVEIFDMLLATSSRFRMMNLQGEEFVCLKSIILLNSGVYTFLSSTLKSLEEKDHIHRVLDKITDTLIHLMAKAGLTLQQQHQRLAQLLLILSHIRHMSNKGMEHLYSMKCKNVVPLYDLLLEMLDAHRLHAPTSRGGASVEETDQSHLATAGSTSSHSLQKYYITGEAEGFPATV

[2] = target: T1, Estrogen receptor (Homo sapiens); experiment: Displacement of fluorescein-labeled estradiol from human recombinant ERalpha at 1 uM by fluorescence polarization assay
[3] = target: T1, Estrogen receptor (Homo sapiens); experiment: Displacement of fluorescein-labeled estradiol from human recombinant ERalpha at 5 uM by fluorescence polarization assay
Estrogen receptor beta [4] = target: T2, Estrogen receptor beta (Homo sapiens, UniProt Q92731); experiment: Displacement of fluorescein-labeled estradiol from human recombinant ERbeta at 5 uM by fluorescence polarization assay
Estrogen receptor beta [5] = target: T2, Estrogen receptor beta; experiment: Displacement of fluorescein-labeled estradiol from human recombinant ERbeta at 0.2 uM by fluorescence polarization assay
Estrogen receptor beta [6] = target: T2, Estrogen receptor beta; experiment: Displacement of fluorescein-labeled estradiol from human recombinant ERbeta at 1 uM by fluorescence polarization assay

T2 sequence (Q92731 whole entry): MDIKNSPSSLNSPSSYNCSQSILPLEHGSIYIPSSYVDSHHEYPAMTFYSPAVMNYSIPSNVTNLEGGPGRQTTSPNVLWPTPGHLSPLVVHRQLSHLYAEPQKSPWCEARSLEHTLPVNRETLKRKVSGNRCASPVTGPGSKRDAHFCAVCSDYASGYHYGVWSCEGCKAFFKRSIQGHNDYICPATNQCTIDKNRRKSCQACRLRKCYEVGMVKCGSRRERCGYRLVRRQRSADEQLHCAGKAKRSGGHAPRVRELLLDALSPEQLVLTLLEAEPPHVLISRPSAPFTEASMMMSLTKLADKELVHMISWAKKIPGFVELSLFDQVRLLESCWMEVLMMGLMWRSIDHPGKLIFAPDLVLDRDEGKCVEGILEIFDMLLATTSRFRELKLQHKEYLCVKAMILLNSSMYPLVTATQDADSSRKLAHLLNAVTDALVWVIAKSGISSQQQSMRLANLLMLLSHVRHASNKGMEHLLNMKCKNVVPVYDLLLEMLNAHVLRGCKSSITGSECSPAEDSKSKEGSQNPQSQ

Row | SMILES | Activity [1] [%] | Activity [2] [%] | Activity [3] [%] | Activity (Estrogen receptor beta [4]) [%] | Activity (Estrogen receptor beta [5]) [%] | Activity (Estrogen receptor beta [6]) [%]
1 | CCC/C=C(\CCC)[C@@H](NS(=O)(=O)c1ccc(C(F)(F)F)cc1)c1ccc(-c2ccccc2)cc1 | 72 | 14 | 46 | 7 | 7 | 8
2 | CCC[C@@H]1C[C@@]1(CCC)[C@@H](NC(=O)c1ccco1)c1ccc(C(Cl)(Cl)Cl)cc1 | 26 | 39 | 73 | 25 | -2 | 5
3 | CCCC[C@@H]1C[C@H]1[C@@H](NC(=O)c1cccnc1)c1ccc(-c2ccccc2)cc1 | 64 | 63 | 53 | 10 | 2 | 2
4 | CCCC[C@@H]1C[C@H]1[C@@H](NC(=O)c1ccc(-c2ccccc2)cc1)c1ccc(-c2ccccc2)cc1 | 52 | 42 | -6 | 4 | 0 | 6
5 | CCC/C=C(\CCC)[C@@H](NS(=O)(=O)c1ccc(C(F)(F)F)cc1)c1ccc(C(=O)OC)cc1 | 63 | 86 | 90 | 43 | 15 | 29
6 | CCC/C=C(\CCC)[C@@H](NC(=O)c1ccc(C(=O)OC)cc1)c1ccc(C(=O)OC)cc1 | -14 | 24 | 38 | 8 | -13 | -3
7 | CCCC[C@@H]1C[C@H]1C(NC(=O)c1cccs1)c1ccc(C(F)(F)F)cc1 (single isomer, unassigned) | 50 | 58 | 79 | 13 | 8 | 14
8 | CCCC[C@@H]1C[C@H]1[C@@H](NC(=O)c1ccco1)c1ccccc1 | 63 | 65 | 91 | 20 | 8 | 7
9 | CCC[C@@H]1C[C@@]1(CCC)[C@@H](NP(=O)(c1ccccc1)c1ccccc1)c1ccc(Cl)cc1 | 5 | 30 | -44 | -5 | 2 | -1
10 | CCC/C=C(\CCC)[C@@H](NS(=O)(=O)c1cccc2cccnc12)c1ccc(-c2ccccc2)cc1 | 56 | 28 | 67 | 13 | 14 | 11
11 | CCC/C=C(\CCC)[C@@H](NC(=O)CCc1ccccc1)c1ccc(C(F)(F)F)cc1 | 56 | 31 | 67 | 17 | 8 | 13
12 | CCC[C@@H]1C[C@@]1(CCC)[C@@H](NC(=O)Cc1ccccc1)c1ccc(-c2ccccc2)cc1 | 7 | 17 | -6 | -5 | -8 | -6
13 | CCCC[C@@H]1C[C@H]1[C@@H](NC(=O)c1cccs1)c1ccc(-c2ccccc2)cc1 | 58 | 54 | 37 | 5 | -1 | 8
14 | CCCC[C@@H]1C[C@H]1[C@@H](NC(=O)c1ccccc1)c1ccc(C(=O)OC)cc1 | 54 | 54 | 75 | 6 | -3 | -2
15 | C=C(CCCC)[C@@H](NC(=O)c1ccc(C(=O)OC)cc1)c1ccccc1 | 21 | 24 | 37 | 5 | -9 | -7
16 | CCC/C=C(\CCC)[C@@H](NC(=O)c1ccccc1)c1ccccc1 | 51 | 56 | 82 | 17 | 8 | 6
17 | CCC/C=C(\CCC)[C@@H](NC(=O)c1ccc(C(F)(F)F)cc1)c1ccc(C(F)(F)F)cc1 | -7 | 32 | 61 | 5 | 10 | 5
18 | CCCCCC/C=C(\C)[C@@H](NC(=O)c1cccnc1)c1ccc(-c2ccccc2)cc1 | 32 | 44 | 48 | 6 | -8 | -4
19 | C=C(CCCC)[C@@H](NC(=O)c1ccc(-c2ccccc2)cc1)c1ccccc1 | -33 | 35 | 46 | 8 | 0 | 2
20 | C=C(CCCC)[C@@H](NC(=O)c1ccco1)c1ccccc1 | -111 | 29 | 41 | 6 | -3 | -2
21 | CCC/C=C(\CCC)[C@@H](NC(=O)Cc1ccccc1)c1ccc(C(=O)OC)cc1 | 3 | 22 | 48 | 13 | -11 | -2
22 | CCC/C=C(\CCC)[C@@H](NS(=O)(=O)c1ccccc1)c1ccc(C(F)(F)F)cc1 | 70 | 66 | 102 | 30 | 13 | 10
23 | CCC/C=C(\CCC)[C@@H](NC(=O)c1ccc(C(F)(F)F)cc1)c1ccccc1 | 47 | 59 | 68 | 16 | 10 | 11
24 | CCC/C=C(\CCC)[C@@H](NC(=O)CC(C)C)c1ccccc1 | 69 | 84 | 110 | 22 | -4 | 3
25 | CCC/C=C(\CCC)[C@@H](NC(=O)c1cccs1)c1ccc(C(F)(F)F)cc1 | 43 | 31 | 73 | 19 | 9 | 12
26 | C=C(CCC)[C@@H](NC(=O)c1ccccc1Cl)c1ccccc1 | 68 | 68 | 73 | 7 | 11 | 7
27 | CCCC[C@@H]1C[C@H]1[C@@H](NC(=O)c1ccc(C(F)(F)F)cc1)c1ccc(C(=O)OC)cc1 | 20 | 45 | 45 | 15 | -2 | 1
28 | CCCC[C@@H]1C[C@@]1(C)[C@@H](NS(=O)(=O)c1cccc2cccnc12)c1ccc(-c2ccccc2)cc1 | 52 | 52 | 41 | 2 | -5 | -4
29 | CCC/C=C(\CCC)[C@@H](NC(=O)c1ccccc1)c1ccc(C(=O)OC)cc1 | 0 | 52 | 78 | 11 | 1 | 28
30 | CCCC[C@@H]1C[C@H]1[C@@H](NC(=O)c1ccccc1)c1ccc(-c2ccccc2)cc1 | 72 | 77 |  | 46 | 26 | 31
